This is an account of results in PMC12176268, “Structural Features and Photophysical and Antiproliferative Properties of Me2N‑pbt-Cycloplatinated Complexes with Picolinate Ligands” (Inorganic Chemistry, 2025).

The test has as its system MDA-MB-231 cells. Description: Intracellular ROS production with H2DCFDA probe. Format: cell-based, human. Here is the method: Cyclometalated complexes of various metals, including Ir(III), Rh(III), Pt(II), and Au(III), have been reported to induce overproduction of reactive oxygen species (ROS), inducing oxidative stress leading to cell death. […] Following the protocol used for cytotoxicity assays, cells were incubated with 3 for 4 h in the dark at 37 °C (dark conditions) or incubated with 3 for 4 h in the dark at 37 °C, followed by 5 min of irradiation at 450 nm (irradiation conditions). ROS production was measured using the nonspecific ROS probe 2′,7′-dichlorodihydrofluorescein diacetate (H2DCFDA) (Figures and S36).
11 ROS production upon incubation of MDA-MB-231 cells for 4 h at 37 °C (dark) or for 4 h at 37 °C + 5 min irradiation at 450 nm (irradiation) with complex 3 (5, 2, 1, or 0.5 μM), expressed as the mean fluorescence intensity normalized to DMSO negative controls. […]
Triple-negative breast cancer cells MDA-MB-231 were seeded in 6-well plates at a concentration of 150 000 cells/well in 1.5 mL DMEM (Dulbecco’s modified Eagle’s medium) containing GlutaMax I supplemented with 10% FBS. […] Microscopy images were recorded in brightfield and GFP filter modes using an EVOS M5000 microscope with a 10× objective. Cell confluency was assessed on the brightfield images using EVOS M5000 microscope software, and quantification of green fluorescence was performed using Fiji software. […]

Take “[Pt(Me2N-pbt)(3-OH-pic-κN,O)] [Complex 3]”: the “ROS production (H2DCFDA green fluorescence), dark” value (MDA-MB-231, 0.5, 1, 2 or 5 μM, 4 h at 37 °C in the dark) is on record as “dose-dependent increase of green fluorescence”. Besides, the “ROS production (H2DCFDA green fluorescence), irradiation versus dark” value (MDA-MB-231, 4 h at 37 °C + 5 min irradiation at 450 nm) is “statistically significant increase of ROS production”.
